Patent US20070086967A1, “Treatment of psoriasis with rosiglitazone” (priority 2003, published 2007)

Key:
Type in all cases: in vivo, humans
subjects with psoriasis = test: Phase II placebo-controlled clinical study, safety
Procedure: (§1) A phase II, multi-center, randomized, double-blind, placebo-controlled study involving 186 subjects compared the safety and efficacy of three doses (2 mg, 4 mg, and 8 mg) of rosiglitazone maleate (RSG) to placebo for eighteen weeks with two weeks follow-up in the treatment of moderate to severe plaque psoriasis. This study was designed to provide an assessment of the risk to benefit profile of three dose levels of RSG in subjects with psoriasis. 186 patients were enrolled and 108 patients completed the study. All patients were in the moderate to very severe category, although of the patients starting the study only 11 were moderate and the rest were severe or very severe.

[1] = tested on: moderate to severe plaque psoriasis; test: Phase II placebo-controlled clinical study, Psoriasis Area and Severity Index (PASI)
Procedure: The Psoriasis Area Severity Index (PASI) score was developed by Fredeniksson and Petersson in 1978 ( Frederiksson T and Petersson U. Severe psoriasis-oral therapy with a new retinoid. Dermatologica. 1978;157:238-44). According to our preferred method of determining the PASI score,four main body areas are assessed: the head (h), the upper extremities (u) the trunk (t), and lower extremities (l) corresponding to 10; 20, 30 and 40% of the total body surface area, respectively. The buttocks are counted as part of the legs, the axilla and groin count as part of the trunk and the neck as part of the head. The area of psoriatic involvement of these four main areas (Ah, At, Au, Al) is given a numeric score for the percent involved by psoriasis: 1=1-9%; 2=10-29%; 3=30-49%; 4=50-69%; 5=70-89% and 6=90-100%. In order to evaluate the severity of the psoriatic lesions three target symptoms, erythema (E), thickness/indurabon (I), and desquamation/scaling (D) will be assessed according to a scale of 0-4, where 4 represents the severest possible involvement. In the case of i.e., erythema, 0=No symptoms; 1=slight erythema, 2=moderate erythema; 3=marked erythema, and 4=very marked erythema. The PASI score (0-72) is then calculated, from the following formula: […]
The PASI score varies in steps of 0.1 units from 0.0 to 72.0. Higher PASI scores indicate higher degrees of severity. The last mentioned score represents complete erythema of the severest possible degree, while 0.0 means no psoriatic lesions at all. Generally severe psoriasis is defined by a PASI score of 20 or more.
as §1
(§2) Efficacy measurements included the Lattice System Global Psoriasis Score (LS-GPS) and the Psoriasis Area and Severity Index (PASI).

[2] = tested on: moderate to severe plaque psoriasis; test: Phase II placebo-controlled clinical study, Lattice System Global Psoriasis Score (LS-GPS); settings: for Improvement by 2 categories, number of patients / Improvement by 2 categories, percentage of patients / Improvement to clear/almost clear, number of patients / Improvement to clear/almost clear, percentage of patients / Improvement to clear/almost clear/mild, number of patients / Improvement to clear/almost clear/mild, percentage of patients: LS-GPS, 18 weeks
Excerpt: The Lattice System Global Psoriasis Score (LS-GPS) developed by Charles Ellis, M. D. is a physician's global assessment tool that provides an entire body assessment that combines total body surface area (BSA) involvement with average plaque qualities. The resulting LS-GPS is one of eight discrete values ranging from “Clear” to “Very Severe”.
According to the LS-GPS score the definitions are: Clear • 0% Body Surface Area (BSA) and no elevation, erythema or scale. Almost Clear: • 1-3% BSA, mild elevation, erythema or scale; or • 4-9% BSA, mild erythema or mild scale Mild: • 1-3% BSA, moderate or marked elevation, erythema or scale; or • 4-9% BSA, mild elevation or moderate erythema or moderate scale; or • 10-20% BSA, mild erythema or mild/moderate scale Mild to Moderate: • 4-9% BSA, moderate elevation or marked scale; or • 10-20% BSA, moderate erythema; or • 21-29% BSA, mild erythema or mild/moderate scale Moderate: • 4-9% BSA, marked elevation or marked erythema; or • 10-20% BSA, mild elevation; or • 30-50% BSA, mild erythema or mild scale Moderate to Severe: • 10-20% BSA, moderate elevation or marked scale; or • 21-29% mild elevation or moderate erythema; or • 51+% BSA, mild erythema or mild scale Severe: • 10-20% BSA, marked elevation or marked erythema; or • 21-29% BSA, moderate/marked elevation or marked erythema or marked scale; or • 30-50% BSA, mild elevation or moderate erythema or moderate scale Very Severe: • 30-50% BSA, moderate/marked elevation or marked erythema or marked scale; or • 51+% BSA, any elevation or moderate/marked erythema or moderate/marked scale.
as §1, §2
“Observed” refers to data on patients who completed the trial. “LOCF” (last observation carried forward) includes data on patients who withdrew from the trial for some reason and includes their last observation in the data. The percentage is out of the total number of initial participants in the trial.

[3] = tested on: moderate to severe plaque psoriasis; test: Phase II placebo-controlled clinical study, overall efficacy, onset of effect and patient photographs
Procedure: FIGS. 3, 4, 5 and 6: photographs of the back of a patient receiving 2 mg rosiglitazone at baseline and after 12 weeks, 18 weeks and follow-up (week 20).
FIGS. 7, 8 and 9: photographs of the lower leg of a patient receiving 8 mg rosiglitazone at baseline and after 12 weeks and 18 weeks.
as §1, §2

[4] = 18 weeks of oral, daily treatment, 2, 4, 8 mg
[5] = Week 12, 2 mg and 8 mg groups compared to placebo
[6] = Observed (completers), 2 mg oral daily
[7] = Observed (completers), 4 mg oral daily
[8] = Observed (completers), 8 mg oral daily

CN(CCOc1ccc(CC2SC(=O)NC2=O)cc1)c1ccccn1 (stereo not drawn) [RSG, 5-[4-[2-(N-methyl-N-(2-pyridyl)amino)ethoxy]benzyl]thiazolidine-2,4-dione]
safety findings (subjects with psoriasis; [4]): no unexpected safety findings | safety profile (subjects with psoriasis; [4]): comparable across treatment groups | adverse events (subjects with psoriasis; all doses): comparable with placebo | tolerability (subjects with psoriasis; all doses): well tolerated | PASI results (FIG. 2, change from baseline, LOCF) ([1]; 2 and 8 mg group at 12 weeks): particularly good | mean percent change in PASI ([1]; Week 12, 2 mg and 8 mg group): statistically significant | proportion of subjects who achieved a 50% improvement according the PASI [1, 5]: improvements | proportion of subjects who achieved a 75% improvement according the PASI [1, 5]: improvements | PASI mean percent change ([1]; Week 18, 2 mg group): statistically significant | other PASI endpoints ([1]; Week 18, 8 mg dose): comparable efficacy with the 2 mg dose | improvements in mean percent change in PASI total scores during follow-up period ([1]; two weeks follow-up after 18 weeks of treatment, all treatment groups): maintained | LS-GPS results (FIG. 1, percentage of completed patients clear, almost clear or mild) ([2]; 8 mg group at 18 weeks): particularly good | Improvement by 2 categories, number of patients ([2]; LOCF, 2 mg oral daily): 12 | Improvement by 2 categories, percentage of patients ([2]; LOCF, 2 mg oral daily): 24% | Improvement to clear/almost clear, number of patients ([2]; LOCF, 2 mg oral daily): 2 | Improvement to clear/almost clear, percentage of patients ([2]; LOCF, 2 mg oral daily): 4% | Improvement to clear/almost clear/mild, number of patients ([2]; LOCF, 2 mg oral daily): 5 | Improvement to clear/almost clear/mild, percentage of patients ([2]; LOCF, 2 mg oral daily): 10% | Improvement by 2 categories, number of patients ([2]; LOCF, 4 mg oral daily): 6 | Improvement by 2 categories, percentage of patients ([2]; LOCF, 4 mg oral daily): 14% | Improvement to clear/almost clear, number of patients ([2]; LOCF, 4 mg oral daily): 1 | Improvement to clear/almost clear, percentage of patients ([2]; LOCF, 4 mg oral daily): 2% | Improvement to clear/almost clear/mild, number of patients ([2]; LOCF, 4 mg oral daily): 4 | Improvement to clear/almost clear/mild, percentage of patients ([2]; LOCF, 4 mg oral daily): 9% | Improvement by 2 categories, number of patients ([2]; LOCF, 8 mg oral daily): 11 | Improvement by 2 categories, percentage of patients ([2]; LOCF, 8 mg oral daily): 25% | Improvement to clear/almost clear, number of patients ([2]; LOCF, 8 mg oral daily): 3 | Improvement to clear/almost clear, percentage of patients ([2]; LOCF, 8 mg oral daily): 7% | Improvement to clear/almost clear/mild, number of patients ([2]; LOCF, 8 mg oral daily): 11 | Improvement to clear/almost clear/mild, percentage of patients ([2]; LOCF, 8 mg oral daily): 25% | Improvement by 2 categories, number of patients [2, 6]: 11 | Improvement by 2 categories, percentage of patients [2, 6]: 28% | Improvement to clear/almost clear, number of patients [2, 6]: 2 | Improvement to clear/almost clear, percentage of patients [2, 6]: 5% | Improvement to clear/almost clear/mild, number of patients [2, 6]: 5 | Improvement to clear/almost clear/mild, percentage of patients [2, 6]: 13% | Improvement by 2 categories, number of patients [2, 7]: 4 | Improvement by 2 categories, percentage of patients [2, 7]: 20% | Improvement to clear/almost clear, number of patients [2, 7]: 1 | Improvement to clear/almost clear, percentage of patients [2, 7]: 5% | Improvement to clear/almost clear/mild, number of patients [2, 7]: 2 | Improvement to clear/almost clear/mild, percentage of patients [2, 7]: 10% | Improvement by 2 categories, number of patients [2, 8]: 10 | Improvement by 2 categories, percentage of patients [2, 8]: 37% | Improvement to clear/almost clear, number of patients [2, 8]: 3 | Improvement to clear/almost clear, percentage of patients [2, 8]: 11% | Improvement to clear/almost clear/mild, number of patients [2, 8]: 10 | Improvement to clear/almost clear/mild, percentage of patients [2, 8]: 37% | LS-GPS summary [2, 5]: improvements | subjects who achieved Clear/Almost Clear in the LS-GPS (primary endpoint) ([2]; Week 12, in each of the RSG groups (2 mg, 4 mg, 8 mg), none in placebo): one | distribution of the LS-GPS ([2]; Week 18, 2 mg group): statistically significant | other LS-GPS endpoints ([2]; Week 18, 8 mg dose): comparable efficacy with the 2 mg dose | odds for successful treatment (Clear/Almost Clear/Mild LS-GPS) relative to placebo group ([2]; Week 18, 8 mg group): ~5 times | proportion of subjects who achieved Clear/Almost Clear/Mild, significance ([2]; Week 18, 8 mg group vs placebo): achieved statistical significance | subjects who achieved an improvement of Clear/Almost Clear ([2]; Week 18, all RSG groups together, none on placebo): six | efficacy results versus placebo ([3]; 4 mg group, high dropout rate (24/44)): did not separate appreciably from placebo | clinical effects ([3]; Week 12 and Week 18, 2 mg and 8 mg treatment groups): Clinically meaningful effects | efficacy in photographs of a patient's back (FIGS. 3-6) ([3]; one patient on 2 mg, baseline, 12 weeks, 18 weeks, follow-up week 20): good efficacy | efficacy in photographs of a patient's lower leg (FIGS. 7-9) ([3]; one patient on 8 mg, baseline, 12 weeks, 18 weeks): good efficacy | onset of action according to most measures ([3]; oral, 2 to 8 mg/day): around 2 weeks | onset of activity ([3]; oral, 2 to 8 mg/day): 6-8 weeks | time to noticeably beneficial effects ([3]; oral, 2 to 8 mg/day): 12-18 weeks | time of peak effect (other endpoints) ([3]; study only 18 weeks, peak efficacy may not have been observed): 18 weeks
